Measurements: ChEMBL document CHEMBL3044763, “Inhibitory Activities of Rhodanine Derivatives on Plant Growth” (Biosci Biotechnol Biochem, 1996)

Experiments:
[1] = Toxicity in Mus musculus ddY (mouse) assessed as mortality at 5 mg/kg, ip after 6 days; type: organism-based; design: dose 5 mg/kg, route intraperitoneal; conditions: in vivo
[2] = Toxicity in Mus musculus ddY (mouse) assessed as mortality at 4 mg/kg, ip after 7 days; type: organism-based; design: dose 4 mg/kg, route intraperitoneal; conditions: in vivo
[3] = test system: Brassica rapa subsp. oleifera; experiment: Growth inhibition of Brassica rapa subsp. oleifera assessed as chlorophyll b level at 1 x 10^-4 M after 7 days; type: functional; design: scale not given: the % may be the effect or the level left
Sesamum indicum [4] = experiment: Growth inhibition of Sesamum indicum (sesame) assessed as root growth at 3 x 10^-5 M after 7 days; type: functional
[5] = Toxicity in Mus musculus ddY (mouse) assessed as mortality at 4 mg/kg, ip after 3 days; type: organism-based; design: dose 4 mg/kg, route intraperitoneal; conditions: in vivo
[6] = Toxicity in Mus musculus ddY (mouse) assessed as mortality at 4 mg/kg, ip after 5 days; type: organism-based; design: dose 4 mg/kg, route intraperitoneal; conditions: in vivo
[7] = Toxicity in Mus musculus ddY (mouse) assessed as mortality at 7 mg/kg, ip after 1 day; type: organism-based; design: dose 7 mg/kg, route intraperitoneal; conditions: in vivo
Sesamum indicum [8] = experiment: Growth inhibition of Sesamum indicum (sesame) assessed as root growth at 1 x 10^-4 M after 7 days; type: functional
Sesamum indicum [9] = experiment: Growth inhibition of Sesamum indicum (sesame) assessed as root growth at 1 x 10^-5 M after 7 days; type: functional
[10] = Toxicity in Mus musculus ddY (mouse) assessed as mortality at 3 mg/kg, ip after 5 days; type: organism-based; design: dose 3 mg/kg, route intraperitoneal; conditions: in vivo
[11] = Toxicity in Mus musculus ddY (mouse) assessed as mortality at 8 mg/kg, ip after 4 days; type: organism-based; design: dose 8 mg/kg, route intraperitoneal; conditions: in vivo
[12] = Toxicity in Mus musculus ddY (mouse) assessed as mortality at 8 mg/kg, ip after 3 days; type: organism-based; design: dose 8 mg/kg, route intraperitoneal; conditions: in vivo
Allium tuberosum [13] = experiment: Growth inhibition of Allium tuberosum assessed as root growth at 5 x 10^-5 M after 10 days; type: functional
[14] = Toxicity in Mus musculus ddY (mouse) assessed as mortality at 8 mg/kg, ip after 2 days; type: organism-based; design: dose 8 mg/kg, route intraperitoneal; conditions: in vivo
Echinochloa esculenta [15] = experiment: Growth inhibition of Echinochloa esculenta assessed as root growth at 3 x 10^-4 M after 7 days; type: functional
[16] = Toxicity in Mus musculus ddY (mouse) assessed as mortality at 5 mg/kg, ip after 5 days; type: organism-based; design: dose 5 mg/kg, route intraperitoneal; conditions: in vivo
[17] = Toxicity in Mus musculus ddY (mouse) assessed as mortality at 3 mg/kg, ip after 7 days; type: organism-based; design: dose 3 mg/kg, route intraperitoneal; conditions: in vivo
[18] = Toxicity in Mus musculus ddY (mouse) assessed as mortality at 7 mg/kg, ip after 4 days; type: organism-based; design: dose 7 mg/kg, route intraperitoneal; conditions: in vivo
[19] = Toxicity in Mus musculus ddY (mouse) assessed as mortality at 5 mg/kg, ip after 1 day; type: organism-based; design: dose 5 mg/kg, route intraperitoneal; conditions: in vivo
Lactuca sativa [20] = experiment: Growth inhibition of Lactuca sativa (lettuce) assessed as root growth at 5 x 10^-5 M after 7 days; type: functional
[21] = test system: Brassica rapa subsp. oleifera; experiment: Growth inhibition of Brassica rapa subsp. oleifera assessed as total chlorophyll level at 3 x 10^-4 M after 7 days; type: functional; design: scale not given: the % may be the effect or the level left
[22] = Toxicity in Mus musculus ddY (mouse) assessed as mortality at 4 mg/kg, ip after 1 day; type: organism-based; design: dose 4 mg/kg, route intraperitoneal; conditions: in vivo
Daucus carota = experiment: Growth inhibition of Daucus carota (carrot) assessed as root growth at 3 x 10^-5 M after 7 days; type: functional
[23] = Toxicity in Mus musculus ddY (mouse) assessed as mortality at 4 mg/kg, ip after 2 days; type: organism-based; design: dose 4 mg/kg, route intraperitoneal; conditions: in vivo
[24] = Toxicity in Mus musculus ddY (mouse) assessed as mortality at 3 mg/kg, ip after 4 days; type: organism-based; design: dose 3 mg/kg, route intraperitoneal; conditions: in vivo
[25] = test system: Brassica rapa subsp. oleifera; experiment: Growth inhibition of Brassica rapa subsp. oleifera assessed as root growth at 3 x 10^-4 M after 7 days; type: functional
[26] = Toxicity in Mus musculus ddY (mouse) assessed as mortality at 4 mg/kg, ip after 6 days; type: organism-based; design: dose 4 mg/kg, route intraperitoneal; conditions: in vivo
[27] = Toxicity in Mus musculus ddY (mouse) assessed as mortality at 5 mg/kg, ip after 3 days; type: organism-based; design: dose 5 mg/kg, route intraperitoneal; conditions: in vivo
[28] = Toxicity in Mus musculus ddY (mouse) assessed as mortality at 7 mg/kg, ip after 2 days; type: organism-based; design: dose 7 mg/kg, route intraperitoneal; conditions: in vivo
Allium tuberosum [29] = experiment: Growth inhibition of Allium tuberosum assessed as root growth at 3 x 10^-5 M after 10 days; type: functional
[30] = Toxicity in Mus musculus ddY (mouse) assessed as mortality at 6 mg/kg, ip after 4 days; type: organism-based; design: dose 6 mg/kg, route intraperitoneal; conditions: in vivo
Echinochloa esculenta [31] = experiment: Growth inhibition of Echinochloa esculenta assessed as root growth at 1 x 10^-4 M after 7 days; type: functional
[32] = Toxicity in Mus musculus ddY (mouse) assessed as mortality at 5 mg/kg, ip after 7 days; type: organism-based; design: dose 5 mg/kg, route intraperitoneal; conditions: in vivo
[33] = Toxicity in Mus musculus ddY (mouse) assessed as mortality at 6 mg/kg, ip after 3 days; type: organism-based; design: dose 6 mg/kg, route intraperitoneal; conditions: in vivo
[34] = test system: Brassica rapa subsp. oleifera; experiment: Growth inhibition of Brassica rapa subsp. oleifera assessed as chlorophyll a level at 1 x 10^-4 M after 7 days; type: functional; design: scale not given: the % may be the effect or the level left
Echinochloa esculenta [35] = experiment: Growth inhibition of Echinochloa esculenta assessed as root growth at 3 x 10^-5 M after 7 days; type: functional
[36] = Toxicity in Mus musculus ddY (mouse) assessed as mortality at 3 mg/kg, ip after 6 days; type: organism-based; design: dose 3 mg/kg, route intraperitoneal; conditions: in vivo
[37] = Toxicity in Mus musculus ddY (mouse) assessed as mortality at 8 mg/kg, ip after 1 day; type: organism-based; design: dose 8 mg/kg, route intraperitoneal; conditions: in vivo
[38] = test system: Brassica rapa subsp. oleifera; experiment: Growth inhibition of Brassica rapa subsp. oleifera assessed as chlorophyll a level at 5 x 10^-5 M after 7 days; type: functional; design: scale not given: the % may be the effect or the level left
[39] = Toxicity in ip dosed Mus musculus ddY (mouse) assessed as mortality after 1 to 7 days; type: organism-based; conditions: in vivo
[40] = test system: Brassica rapa subsp. oleifera; experiment: Growth inhibition of Brassica rapa subsp. oleifera assessed as chlorophyll a level at 3 x 10^-4 M after 7 days; type: functional; design: scale not given: the % may be the effect or the level left
[41] = test system: Brassica rapa subsp. oleifera; experiment: Growth inhibition of Brassica rapa subsp. oleifera assessed as chlorophyll b level at 5 x 10^-5 M after 7 days; type: functional; design: scale not given: the % may be the effect or the level left
[42] = Toxicity in Mus musculus ddY (mouse) assessed as mortality at 6 mg/kg, ip after 1 day; type: organism-based; design: dose 6 mg/kg, route intraperitoneal; conditions: in vivo
Allium tuberosum [43] = experiment: Growth inhibition of Allium tuberosum assessed as root growth at 3 x 10^-4 M after 10 days; type: functional
[44] = Toxicity in Mus musculus ddY (mouse) assessed as mortality at 6 mg/kg, ip after 5 days; type: organism-based; design: dose 6 mg/kg, route intraperitoneal; conditions: in vivo
Lactuca sativa [45] = experiment: Growth inhibition of Lactuca sativa (lettuce) assessed as root growth at 1 x 10^-4 M after 7 days; type: functional
[46] = Toxicity in Mus musculus ddY (mouse) assessed as mortality at 3 mg/kg, ip after 3 days; type: organism-based; design: dose 3 mg/kg, route intraperitoneal; conditions: in vivo
[47] = Toxicity in Mus musculus ddY (mouse) assessed as mortality at 8 mg/kg, ip after 7 days; type: organism-based; design: dose 8 mg/kg, route intraperitoneal; conditions: in vivo
[48] = Toxicity in Mus musculus ddY (mouse) assessed as mortality at 7 mg/kg, ip after 6 days; type: organism-based; design: dose 7 mg/kg, route intraperitoneal; conditions: in vivo
Echinochloa esculenta [49] = experiment: Growth inhibition of Echinochloa esculenta assessed as root growth at 5 x 10^-5 M after 7 days; type: functional
[50] = Toxicity in Mus musculus ddY (mouse) assessed as mortality at 6 mg/kg, ip after 2 days; type: organism-based; design: dose 6 mg/kg, route intraperitoneal; conditions: in vivo
[51] = test system: Brassica rapa subsp. oleifera; experiment: Growth inhibition of Brassica rapa subsp. oleifera assessed as total chlorophyll level at 3 x 10^-5 M after 7 days; type: functional; design: scale not given: the % may be the effect or the level left

NN1C(=O)CSC1=S [AMINORHODANINE]
mortality at 144 h [1]: 60%
mortality at 168 h [2]: 20%
Activity [3]: 3.82%
Activity (Sesamum indicum [4]): 9.5 mm
mortality at 72 h [5]: 20%
mortality at 120 h [6]: 20%
mortality at 24 h [7]: 80%
Activity (Sesamum indicum [8]): 3.2 mm
Activity (Sesamum indicum [9]): 6.8 mm
mortality at 120 h [10]: 0%
mortality at 96 h [11]: 100%
mortality at 72 h [12]: 100%
Activity (Allium tuberosum [13]): 8.6 mm
mortality at 48 h [14]: 100%
Activity (Echinochloa esculenta [15]): 3.1 mm
mortality at 120 h [16]: 60%
mortality at 168 h [17]: 0%
mortality at 96 h [18]: 80%
mortality at 24 h [19]: 60%
Activity (Lactuca sativa [20]): 5.9 mm
Activity [21]: 11.16%
mortality at 24 h [22]: 20%
Activity (Daucus carota): 11.2 mm
mortality at 48 h [23]: 20%
mortality at 96 h [24]: 0%
Activity [25]: 3.5 mm
mortality at 144 h [26]: 20%
mortality at 72 h [27]: 60%
mortality at 48 h [28]: 80%
Activity (Allium tuberosum [29]): 7 mm
mortality at 96 h [30]: 60%
Activity (Echinochloa esculenta [31]): 10.8 mm
mortality at 168 h [32]: 60%
mortality at 72 h [33]: 60%
Activity [34]: 8.05%
Activity (Echinochloa esculenta [35]): 16 mm
mortality at 144 h [36]: 0%
mortality at 24 h [37]: 100%
Activity [38]: 9.22%
LD50 [39]: 5.07 mg/kg
Activity [40]: 7.76%
Activity [41]: 4.36%
mortality at 24 h [42]: 60%
Activity (Allium tuberosum [43]): 1.4 mm
mortality at 120 h [44]: 60%
Activity (Lactuca sativa [45]): 3.2 mm
mortality at 72 h [46]: 0%
mortality at 168 h [47]: 100%
mortality at 144 h [48]: 80%
Activity (Echinochloa esculenta [49]): 11.2 mm
mortality at 48 h [50]: 60%
Activity [51]: 15.83%
